Read-outs that look alike come from different tables or passages of the source.
Assays:
[1] = Urinary excretion / renal clearance of acoziborole and SCYX-3109 by LC-MS/MS; format: in vivo; conditions: male, human, urine and plasma; CumAe0–240h/AUC0–240h; mean ± SD; 960 mg single oral dose of acoziborole; read-out: renal clearance CLr0–240h (converted)
Procedure: Urine samples were collected before IP administration (single urine void) and then during intervals of 0–6, 6–12, 12–24, 24–48, 48–72, 72–96, 96–120, 120–168, 168–192, 192–216, and 216–240 h post-dose and for the additional 48-h collection period starting on Day 15 post-dose, that is, 336–384 h. Samples were acidified with citric acid to avoid acoziborole degradation and were refrigerated until the end of the block collection periods. The total weight and volume of urine were then recorded. At the end of each collection period, two aliquots of acidified urine (20 mL) were taken from the sample and stored in polypropylene tubes at −20°C until further analysis for total radioactivity. Two aliquots of 1 mL acidified urine were collected into tubes containing bovine serum albumin in aqueous solution (to avoid non-specific adsorption of acoziborole) and NaCl for acoziborole and SCYX-3109 assays. […]
SGS Belgium (Wavre, Belgium) performed the analysis to determine acoziborole and SCYX-3109 concentrations, using validated bioanalytical assays with liquid chromatography with tandem mass spectrometry (LC-MS/MS) with a Supelco Ascentis Express C8, 2.7 µm, 50 × 2.1 mm I.D. separation column. In plasma, the lower limit of quantification (LLOQ) was 25 ng/mL for acoziborole and 10 ng/mL for SCYX-3109. […]

[2] = parameters: method as in PMID 36763327; conditions: human, after acoziborole; cited from earlier work
[3] = parameters: method as in PMID 21707314; conditions: cited from earlier work
[4] = Metabolite profiling and identification in pools of plasma, urine and feces (UPLC-MS, AMS); format: in vivo, human
Procedure: Individual pools of plasma (0–336 h, including time points at 1, 4, 9, 12, 24, 48, 72, 96, 120, 168, 240, and 336 h), urine (0–240 h, including time intervals 0–6, 6–12, 12–24, 24–48, 48–72, 72–96, 96–120, 120–168, 168–192, 192–216, and 216–240 h) and feces homogenates (0–240 h, including time intervals 0–6, 6–12, 12–24, 24–48, 48–72, 72–96, 96–120, 120–168, and 168–240 h) were prepared; for plasma this was done according to the method described in reference and for feces by using equal percentages per time point based on total volume. Subsequently, a pool per matrix was prepared by mixing equal volumes of each participant pool. In addition, a plasma pre-dose pool was prepared by mixing equal volumes of each pre-dose sample. For urine and feces, TNO blank pool was used to generate a pre-dose sample. Samples were stored below −18°C. Samples (100 µL plasma, 250 µL urine, and 200 mg feces) were pre-treated and injected onto an ultra-high performance liquid chromatography (UPLC)-MS system (Acquity UPLC system [Waters] coupled to a Q-Exactive [Thermo]; Acquity HSS C18 VanGuard 5 mm × 2.1 mm, 1.8 µm [Waters] pre-column and Acquity HSS C18 100 mm × 2.1 mm, 1.8 µm d.p. [Waters]). Fractions were collected and analyzed off-line by AMS. AMS analysis was performed on an AMS system, consisting of an elemental analyzer, a double gas interface, and a 1 MV multi-element AMS. All fecal homogenate sample analyzes were performed in triplicate. Plasma pre-dose and TNO blank urine and feces pools were used for background correction. The UPLC method qualification included determination of retention time stability and extraction recovery. Metabolites were tentatively assigned to fractions in which activity greater than the baseline was observed, based on retention time and structural information provided by DNDi. Presence of the metabolite was confirmed by accurate mass data from high-resolution mass spectrometric analysis.

[5] = Plasma pharmacokinetics of acoziborole and SCYX-3109 by LC-MS/MS, phase I mass balance study; format: in vivo, human
Procedure: This single-center, open-label, single group, non-randomized, single oral dose study was performed at Quotient Sciences Ltd (Ruddington, Nottingham, UK). Clinical trial authorization was obtained from the Medicines and Healthcare Products Regulatory Agency (UK). Approval for administration of [^14C]-acoziborole was obtained from an expert committee sponsored by the Department of Health and Social Care in the United Kingdom (Administration of Radioactive Substances Advisory Committee [ARSAC]), and from the ARSAC-accredited Quotient Sciences’ nuclear medicine practitioner. This study was approved by a local research ethics committee in the United Kingdom and was conducted in compliance with the Declaration of Helsinki and the International Conference on Harmonisation E6 Guideline for Good Clinical Practice. The study was registered in clinicaltrials.gov (NCT04270981) and in EudraCT (reference 2019-004059-35). Written informed consent was obtained from all participants before undertaking any study-related procedures.
Participants were admitted in the evening of the day before dosing (Day −1) and were dosed in the morning of Day 1, following an overnight fast from food and drink of a minimum of 9 h. They remained fasted until approximately 4 h post-dose, at which time lunch was provided. Participants remained resident in the clinic until up to 240 h after dosing (up to Day 11). […] However, due to the COVID-19 pandemic, instead of returning for the outpatient visits, participants were requested to perform home collection of feces for a 48-h period (i.e., Days 31–33, Days 59–61, Days 89–91, and Days 119–121). Collected samples were couriered to the clinical unit at the end of each collection period. A follow-up call took place 5–10 days after the final outpatient visit to ensure the well-being of participants.
Venous blood samples were collected via an indwelling cannula or by venepuncture. A 12 mL sample was taken into heparinized glass tube and chilled on ice immediately before IP administration and 3 mL samples were taken at 1, 4, 9, 12, 24, 48, 72, 96, 120, 144, 168, and 240 h and on Days 15, 31, 59, 89, and 119 after IP administration. The first 0.5 mL of blood withdrawn via cannula was discarded. One aliquot of heparinized whole blood (1 mL) per time point was stored at or below −20°C for total radioactivity analysis. The remaining blood was centrifuged, and the harvested plasma was stored at approximately −20°C for bioanalysis or transferred (exactly 1 mL) into polypropylene tubes pre-filled with 5 µL formic acid. One plasma sample (0.5 mL) was used for metabolite profiling while another (0.5 mL) was used for parent drug and SCYX-3109 metabolite analysis. The remaining plasma was used for total radioactivity analysis.
SGS Belgium (Wavre, Belgium) performed the analysis to determine acoziborole and SCYX-3109 concentrations, using validated bioanalytical assays with liquid chromatography with tandem mass spectrometry (LC-MS/MS) with a Supelco Ascentis Express C8, 2.7 µm, 50 × 2.1 mm I.D. separation column. In plasma, the lower limit of quantification (LLOQ) was 25 ng/mL for acoziborole and 10 ng/mL for SCYX-3109. In urine, the LLOQ was 10 ng/mL for both acoziborole and SCYX-3109.
PK parameters were calculated based on actual sampling times using standard non-compartmental analysis and WinNonlin version 8.1 software (Certara, Princeton, NJ, USA).
The SCYX-3109 to parent ratios were calculated based on Cmax and AUC0–∞.

CC(C)(O)c1ccc(NC(=O)c2ccc(F)cc2C(F)(F)F)cc1O [SCYX-3109]
CL renal [1]: 0.6 mL/min | plasma concentrations at all time points [2]: very low | activity of the metabolite [3]: inactive | proportion of the dose excreted, urine and feces combined ([4]; 0–240 h pools): 12.3% | abundance relative to dose, feces ([4]; feces homogenates 0–240 h): 12.3% | relative abundance in radiochromatogram, feces homogenates pool ([4]; feces homogenates 0–240 h): 24.2% | relative abundance in radiochromatogram (share of total radioactivity), plasma pool ([4]; plasma pool 0–336 h, 960 mg single oral [14C]-acoziborole): could not be detected | AUC(0-t) ([5]; human, plasma, po, 960 mg, 960 mg single oral dose of acoziborole, N = 6, mean ± SD, read-out: AUC0–240h in plasma): 4370 ± 1020 ng·h/mL | AUC(0-t) ([5]; human, plasma, po, 960 mg, 960 mg single oral dose of acoziborole, N = 6, mean ± SD, read-out: AUC0–t in plasma): 3730 ± 2320 ng·h/mL | Tmax ([5]; human, plasma, po, 960 mg, 960 mg single oral dose of acoziborole, N = 6, mean ± SD, read-out: tmax in plasma): 76.1 ± 28 h | Cmax ([5]; male, human, plasma, 960 mg single oral dose of acoziborole, healthy males, N = 6, mean ± SD): 30.5 ± 10.7 ng/mL | plasma level relative to acoziborole, AUC0–240h ratio ([5]; over the 240-h period, 960 mg single oral dose): 0.2%
